Laboratory results taken from ChEMBL document CHEMBL5385925, “Phytochemical Characterization and TRPA1/TRPM8 Modulation Profile of the Cannabigerol-Rich Cannabis sativa L. Chemotype IV” (J Nat Prod, 2024).
The source made the active and inactive calls. The rule behind the calls is not given here.

Columns and labels:
Format in all cases: cell-based
[1] = biological target: Transient receptor potential cation channel subfamily M member 8 (Rattus norvegicus, UniProt Q8R455); assay: Antagonist activity at rat TRPM8 transfected in HEK293 cells assessed as inhibition of icilin induced increase in intracellular Ca2+ concentration preincubated for 5 mins followed by icilin stimulation by Fluo4-AM dye based assay
[2] = biological target: Transient receptor potential cation channel subfamily V member 1 (Homo sapiens) (UniProt Q8NER1); assay: Modulation of human TRPV1 transfected in HEK293 cells
[3] = biological target: Transient receptor potential cation channel subfamily A member 1 (Rattus norvegicus) (UniProt Q6RI86); assay: Agonist activity at rat TRPA1 transfected in HEK293 cells assessed as increase in intracellular Ca2+ concentration by measuring efficacy by Fluo4-AM dye based assay relative to AITC
[4] = biological target: T1, Transient receptor potential cation channel subfamily A member 1 (Rattus norvegicus, UniProt Q6RI86); assay: Antagonist activity at rat TRPA1 transfected in HEK293 cells assessed as desensitization by measuring inhibition of AITC induced increase in intracellular Ca2+ concentration preincubated for 5 mins followed by AITC stimulation by Fluo4-AM dye based assay
[5] = biological target: T1, Transient receptor potential cation channel subfamily A member 1; assay: Agonist activity at rat TRPA1 transfected in HEK293 cells assessed as increase in intracellular Ca2+ concentration by Fluo4-AM dye based assay

Chain of Transient receptor potential cation channel subfamily V member 1 (Homo sapiens) (Q8NER1 whole entry): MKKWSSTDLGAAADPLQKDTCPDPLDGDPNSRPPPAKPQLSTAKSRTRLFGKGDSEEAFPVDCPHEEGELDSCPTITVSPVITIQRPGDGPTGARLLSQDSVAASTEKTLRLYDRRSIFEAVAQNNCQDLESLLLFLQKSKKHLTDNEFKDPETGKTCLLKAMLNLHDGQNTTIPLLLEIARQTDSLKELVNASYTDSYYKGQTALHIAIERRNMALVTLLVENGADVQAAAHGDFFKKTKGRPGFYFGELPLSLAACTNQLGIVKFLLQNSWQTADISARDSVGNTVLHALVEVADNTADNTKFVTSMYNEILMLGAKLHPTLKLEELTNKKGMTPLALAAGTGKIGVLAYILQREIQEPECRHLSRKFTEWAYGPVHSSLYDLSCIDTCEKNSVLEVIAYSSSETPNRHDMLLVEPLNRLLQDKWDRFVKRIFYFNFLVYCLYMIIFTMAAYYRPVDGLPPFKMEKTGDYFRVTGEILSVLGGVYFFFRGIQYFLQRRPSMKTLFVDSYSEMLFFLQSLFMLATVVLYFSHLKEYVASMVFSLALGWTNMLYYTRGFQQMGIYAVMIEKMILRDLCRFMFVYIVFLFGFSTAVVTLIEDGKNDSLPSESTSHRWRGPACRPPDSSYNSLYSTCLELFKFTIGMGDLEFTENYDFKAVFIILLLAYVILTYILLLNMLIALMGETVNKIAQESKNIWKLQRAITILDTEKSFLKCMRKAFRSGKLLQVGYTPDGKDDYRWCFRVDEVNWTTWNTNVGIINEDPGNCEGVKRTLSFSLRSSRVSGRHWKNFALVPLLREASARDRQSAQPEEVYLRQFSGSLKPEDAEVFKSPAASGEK
Chain of Transient receptor potential cation channel subfamily M member 8 (Q8R455 whole entry): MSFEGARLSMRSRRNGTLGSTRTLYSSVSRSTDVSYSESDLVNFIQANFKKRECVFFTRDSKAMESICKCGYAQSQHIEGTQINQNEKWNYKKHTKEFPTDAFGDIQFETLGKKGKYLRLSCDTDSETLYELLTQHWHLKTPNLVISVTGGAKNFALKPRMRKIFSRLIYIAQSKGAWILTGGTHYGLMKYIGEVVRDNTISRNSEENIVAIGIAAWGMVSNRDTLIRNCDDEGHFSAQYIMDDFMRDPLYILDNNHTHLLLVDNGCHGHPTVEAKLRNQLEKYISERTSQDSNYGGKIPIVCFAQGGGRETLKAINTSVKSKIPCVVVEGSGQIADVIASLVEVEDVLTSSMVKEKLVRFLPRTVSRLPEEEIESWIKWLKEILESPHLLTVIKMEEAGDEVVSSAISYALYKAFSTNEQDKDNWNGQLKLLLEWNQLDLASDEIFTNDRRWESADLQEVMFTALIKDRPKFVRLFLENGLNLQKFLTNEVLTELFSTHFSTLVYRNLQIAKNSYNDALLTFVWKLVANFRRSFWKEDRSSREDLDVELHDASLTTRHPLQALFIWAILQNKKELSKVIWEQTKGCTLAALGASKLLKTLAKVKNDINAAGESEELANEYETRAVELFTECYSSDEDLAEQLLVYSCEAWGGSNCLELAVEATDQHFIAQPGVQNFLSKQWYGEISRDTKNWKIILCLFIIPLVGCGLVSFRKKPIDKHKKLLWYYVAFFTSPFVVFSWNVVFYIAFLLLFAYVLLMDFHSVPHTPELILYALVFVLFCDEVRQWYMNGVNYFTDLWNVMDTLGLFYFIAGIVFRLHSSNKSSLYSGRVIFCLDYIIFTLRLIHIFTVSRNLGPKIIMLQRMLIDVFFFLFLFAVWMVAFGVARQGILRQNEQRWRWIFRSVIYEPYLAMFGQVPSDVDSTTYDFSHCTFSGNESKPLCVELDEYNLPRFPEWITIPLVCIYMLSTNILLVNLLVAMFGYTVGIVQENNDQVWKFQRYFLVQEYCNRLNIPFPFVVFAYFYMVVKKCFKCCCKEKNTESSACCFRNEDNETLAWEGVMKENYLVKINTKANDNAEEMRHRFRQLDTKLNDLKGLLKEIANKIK
Chain of Transient receptor potential cation channel subfamily A member 1 (Rattus norvegicus) (Q6RI86 whole entry): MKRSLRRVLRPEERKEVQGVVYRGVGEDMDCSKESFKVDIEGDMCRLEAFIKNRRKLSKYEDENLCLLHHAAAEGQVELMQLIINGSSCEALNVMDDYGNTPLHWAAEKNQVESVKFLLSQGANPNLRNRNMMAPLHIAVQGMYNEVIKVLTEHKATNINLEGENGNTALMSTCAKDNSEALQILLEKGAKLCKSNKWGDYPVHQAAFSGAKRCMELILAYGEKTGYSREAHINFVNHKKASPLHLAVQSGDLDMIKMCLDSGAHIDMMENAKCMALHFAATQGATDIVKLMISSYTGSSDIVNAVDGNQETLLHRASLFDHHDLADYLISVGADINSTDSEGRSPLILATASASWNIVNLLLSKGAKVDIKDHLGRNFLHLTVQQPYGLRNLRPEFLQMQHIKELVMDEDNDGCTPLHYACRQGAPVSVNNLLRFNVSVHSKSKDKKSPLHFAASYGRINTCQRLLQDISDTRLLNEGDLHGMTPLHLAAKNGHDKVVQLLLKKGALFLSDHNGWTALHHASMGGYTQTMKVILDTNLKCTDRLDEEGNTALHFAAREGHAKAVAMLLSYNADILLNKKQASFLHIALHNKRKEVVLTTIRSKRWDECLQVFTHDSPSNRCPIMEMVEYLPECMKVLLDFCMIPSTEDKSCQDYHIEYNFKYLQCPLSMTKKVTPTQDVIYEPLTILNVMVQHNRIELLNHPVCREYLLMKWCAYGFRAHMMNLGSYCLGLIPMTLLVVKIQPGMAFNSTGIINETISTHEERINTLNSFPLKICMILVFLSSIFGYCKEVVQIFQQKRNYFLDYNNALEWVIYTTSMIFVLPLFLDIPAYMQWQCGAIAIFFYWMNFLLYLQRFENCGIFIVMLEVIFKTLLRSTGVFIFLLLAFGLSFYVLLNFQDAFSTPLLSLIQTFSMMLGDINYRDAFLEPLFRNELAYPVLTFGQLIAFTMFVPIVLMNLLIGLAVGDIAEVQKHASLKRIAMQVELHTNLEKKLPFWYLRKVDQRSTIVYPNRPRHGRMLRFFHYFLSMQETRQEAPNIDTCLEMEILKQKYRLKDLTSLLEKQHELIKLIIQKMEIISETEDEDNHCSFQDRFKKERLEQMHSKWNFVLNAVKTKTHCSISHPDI
T1 sequence (Q6RI86 whole entry): as above

Structure (SMILES)	IC50 [1]	Activity [2]	Efficacy ([3]; filed as agonist)	IC50 [4]	EC50 [5]	Efficacy [3]
CCCCCC1=CC(=O)C(C/C=C(\C)CCC=C(C)C)=C(O)C1=O	3 µM	inactive	134%	8.4 µM	7.8 µM	
C=C(C)[C@H](O)CC/C(C)=C/Cc1c(O)cc(CCCCC)c(C(=O)O)c1O	5.2 µM		68.5%	> 50 µM	8.5 µM	
C=C(C)[C@H](CCC(C)=O)[C@@H]1c2c(cc(CCCCC)c(C(=O)O)c2O)O[C@H]1O	23.9 µM		91.5%	17.9 µM	6.6 µM	
C=C(C)C(O)CC/C(C)=C\Cc1c(O)cc(CCCCC)c(C(=O)O)c1O (stereo not drawn)	4 µM	inactive	100%	13.9 µM	6.9 µM	
C=C(C)C(O)CC/C(C)=C/Cc1c(O)cc(CCCCC)c(C(=O)O)c1O (stereo not drawn)	10.4 µM		96.1%	37.3 µM	12.1 µM	
C=C(C)[C@@H](O)CC/C(C)=C/Cc1c(O)cc(CCCCC)c(C(=O)O)c1O	33 µM			> 50 µM	15 µM	31%
C=C(C)C(O)CC/C(C)=C/Cc1c(O)cc(CCCCC)cc1O (racemic)	0.8 µM	inactive	75.3%	7.9 µM	1 µM	
C=C(C)[C@H](CCC(C)=O)[C@@H]1c2c(cc(CCCCC)c(C(=O)O)c2O)O[C@@H]1O	8 µM		85.7%	19.2 µM	8.8 µM	
CCCCCc1cc(O)c(C/C=C(\C)CCC(O)C(C)(C)O)c(O)c1C(=O)O (stereo not drawn)	17.3 µM		84.1%	25.1 µM	10.3 µM	
CCCCCc1cc(O)c(C/C=C(\C)CCC(=O)O)c(O)c1C(=O)O	29.5 µM		40.4%	> 50 µM	28.3 µM	
CCCCCc1cc(O)c(C/C=C(\C)CCC=C(C)C)c(O)c1			99.9%			
CCCCCc1cc(O)c(C/C=C(\C)CCC=C(C)C)c(O)c1C(=O)O [CANNABIGEROLIC ACID]	1.31 µM		183%	7.14 µM	8.4 µM	
